Results reported in patent US20230146939A1, “TREATMENT FOR HUMAN CORONAVIRUS INFECTION” (THE ADMINISTRATORS OF THE TULANE EDUCATIONAL FUND, priority 2020, published 2023).

Legend:
[1] = in vivo; cited from earlier work
[2] = cancer patients; cited from earlier work
[3] = system: lung tissue; settings: saline/ATN-161, no SARS-CoV-2
[4] = system: SARS-CoV-2; settings: 1 h

Ac-PHSCN-NH2 [ATN-161, Ac-PHSCN-NH2] [listing 1 of 2 here]
tissue distribution [1]: high tissue distribution | safety in human clinical trials [2]: no dose limiting toxicity | H&E histopathological changes in uninfected mice [3]: no histopathological changes in any of the mice | Masson's trichrome histopathological changes in uninfected mice [3]: no histopathological changes in any of the mice

Ac-PHSCN-NH2 [ATN-161, Ac-PHSCN-NH2] [listing 2 of 2 here]
IC50 [4]: 3.16 µM
